From patent publication US8722580B2, “Agent for inhibiting cytokinin signaling” (Sumitomo Chemical Company, Limited, priority 2006, dated 2014)

How the values were obtained:
[1] = system: Arabidopsis thaliana; experiment: Root growth-promoting activity test (Example 22); assay type: in vivo; conditions: main root length vs control section, 22° C., 10 days
Method: (§1) Enshi standard medium having the following composition (see Table 18) was prepared. To cluster tubes was dispensed each 4 μl of a solution of a chemical substance in DMSO to a final concentration of 0.001 ppm to 10 ppm, and then, was dispensed each 600 μl of the sterilized Enshi standard medium. Then the resulting solution was well mixed. In each of the cluster tubes, 10-20 seeds of Arabidopsis thaliana were sown, and cultured at 22° C. for 10 days in the light. Then, the length of main roots (average main roots) generated from the seeds of Arabidopsis thaliana was measured. An average of eight repeats was determined, and a root growth rate was determined according to the following equation.
(§2) Root growth rate (%)=(Average main root length in chemical substance-treated section)/(Average main root length in control section)×100
Enshi standard medium determined having the following composition (Table 18) was prepared. A DMSO solution of a chemical substance was dispensed by 4 μl to cluster tubes to a final concentration of 0.001 ppm to 10 ppm and the sterilized Enshi standard medium was dispensed by 600 μl and then the resulting solution was well mixed. 10-20 seeds of A. thaliana per cluster tube were sown in the cluster tubes. After culture at 22° C. for 10 days in bright light, the length of main roots (average main roots) took from seeds of A. thaliana was measured. An average of eight repeats was determined and the root growth rate was determined.
Root growth rate (%)=(Average main root length of chemical substance-treated section)/(Average main root length of control section)×100

[2] = biological target: T1, cytokinin receptor CRE1 (Arabidopsis thaliana, UniProt Q9C5U0, S567G/T1018A); experiment: Inhibition of intracellular signaling from plant-derived cytokinin receptor, growth of transformed yeast cell TM182-CRE1; assay type: cell-based; conditions: trans-zeatin 0.6 ppm, chemical substance 2 ppm; for Relative growth rate (%) in test section of test substance to control section, Transformed cell TM182-CRE1: 30° C., 24 hours, turbidity OD 600; for Activity (%) of test substance for inhibiting intracellular signaling from plant-derived cytokinin receptor of cell: = 100 − relative growth rate of TM182-CRE1
T1 construct: expressed in transfected cells; host or cells: Saccharomyces cerevisiae TM182 (sln1Δ) transformed with p415CYC-CRE1
Method: (§3) The transformed cell TM182-CRE1 and the transformed cell TM182-p415CYC1 obtained in Example 6 were each inoculated in 10 ml of a DOLU+Gal medium, and preincubated at 30° C. for 18 hours to obtain a preincubation liquid for each of the transformed cells. The preincubation liquid was diluted with a DOLU+Glu medium for the transformed cell TM182-CRE1 or with a DOLU+Gal medium for the transformed cell TM182-p415CYC1 until OD600=0.1 was reached, to obtain a preincubation dilution for each of the transformed cells.
(§4) To each well of a 96-well plate was added 1 μl of a 200 ppm solution of a test substance in dimethyl sulfoxide (DMSO) to prepare an Assay plate. At the same time, as controls, only 1 μl of DMSO was added to a part of wells. An assay plate for the transformed cell TM182-CRE1 and an assay plate for the transformed cell TM182-p415CYC1 were prepared.
(§5) A 10,000 ppm solution of trans-zeatin (cytokinin) in DMSO was 50-fold diluted with a DOLU+Gul medium to 200 ppm. The 200 ppm trans-zeatin solution was added in an amount of 3/1,000 volume to each of the above-described preincubation dilution to prepare each preincubation dilution containing trans-zeatin at 0.6 ppm. The 0.6 ppm preincubation dilution was added in an amount of 100 μl to each wells of the assay plate for each transformed cell. The plates were incubated at 30° C. for 24 hours. Then, turbidity (OD 600) of each well was measured by using a plate reader. The activity of the test substance for inhibiting intracellular signaling from a plant-derived cytokinin receptor of a cell was tested by comparing the measured turbidity with the turbidity of the control well.
(§6) (Relative growth rate in test section to control section) [%]=[(Turbidity in test section)−(Turbidity in blank)]/[(Turbidity in control section)−(Turbidity in blank)]×100 (Activity of inhibiting intracellular signaling from plant-derived cytokinin receptor of cell) [%]=100−(Relative growth rate in test section to control section)
(§7) In all cases, the existing concentration of trans-zeatin was adjusted to 0.6 ppm and the existing concentration of a chemical substance was adjusted to 2 ppm.
(§8) In all cases, the existing concentration of trans-zeatin was adjusted to 0.6 ppm and the existing concentration of a chemical substance was adjusted to 2 […].

[3] = system: transformed cell TM182-p415CYC1; experiment: Control growth test with transformed yeast cell TM182-p415CYC1 (toxicity to yeast); assay type: cell-based; conditions: trans-zeatin 0.6 ppm; chemical substance 2 ppm; 30° C., 24 hours; turbidity OD 600
Method: as §3, §4, §5, §6, §7, §8

[4] = system: Arabidopsis thaliana; experiment: Root growth-promoting activity test (Example 9); assay type: in vivo; conditions: main root length vs control section, 22° C., 10 days
Method: as §1, with “10)” for “18)”
as §2

[5] = test final concentration 1.25 ppm (highest root growth rate)
[6] = test final concentration 1.25 ppm (concentration with highest root growth rate)
[7] = test final concentration 10 ppm (highest root growth rate)
[8] = test final concentration 10 ppm (concentration with highest root growth rate)
[9] = test final concentration 2.5 ppm (highest root growth rate)
[10] = test final concentration 2.5 ppm (concentration with highest root growth rate)
[11] = test final concentration 5 ppm (highest root growth rate)
[12] = test final concentration 5 ppm (concentration with highest root growth rate)

T1 sequence (Q9C5U0 24-1080 S567G/T1018A): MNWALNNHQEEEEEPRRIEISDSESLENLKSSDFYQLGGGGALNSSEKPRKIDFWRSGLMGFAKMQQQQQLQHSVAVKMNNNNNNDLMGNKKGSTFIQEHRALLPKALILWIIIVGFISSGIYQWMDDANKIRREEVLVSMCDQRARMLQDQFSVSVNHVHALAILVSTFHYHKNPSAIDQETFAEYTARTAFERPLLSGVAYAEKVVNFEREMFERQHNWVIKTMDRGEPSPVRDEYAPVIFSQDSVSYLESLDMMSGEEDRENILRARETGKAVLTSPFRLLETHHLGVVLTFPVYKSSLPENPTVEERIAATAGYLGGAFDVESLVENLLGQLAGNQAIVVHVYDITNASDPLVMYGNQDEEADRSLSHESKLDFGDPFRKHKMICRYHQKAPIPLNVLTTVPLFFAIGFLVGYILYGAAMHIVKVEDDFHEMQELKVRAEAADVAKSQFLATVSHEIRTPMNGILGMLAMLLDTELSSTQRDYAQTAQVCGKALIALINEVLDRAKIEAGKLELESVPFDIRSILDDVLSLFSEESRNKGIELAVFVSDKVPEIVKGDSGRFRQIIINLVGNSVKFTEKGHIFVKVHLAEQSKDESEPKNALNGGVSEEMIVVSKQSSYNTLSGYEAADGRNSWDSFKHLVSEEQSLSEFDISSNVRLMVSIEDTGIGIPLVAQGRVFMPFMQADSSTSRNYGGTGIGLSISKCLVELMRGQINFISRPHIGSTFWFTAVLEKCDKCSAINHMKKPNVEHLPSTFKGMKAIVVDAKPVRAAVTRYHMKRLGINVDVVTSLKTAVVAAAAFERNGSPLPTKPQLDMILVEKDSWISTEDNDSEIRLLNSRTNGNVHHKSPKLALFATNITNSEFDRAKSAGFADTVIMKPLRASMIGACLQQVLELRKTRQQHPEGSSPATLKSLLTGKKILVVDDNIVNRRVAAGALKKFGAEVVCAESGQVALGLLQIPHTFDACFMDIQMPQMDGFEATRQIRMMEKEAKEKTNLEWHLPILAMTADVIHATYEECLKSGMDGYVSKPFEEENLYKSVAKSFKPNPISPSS

SMILES | Relative growth rate (%) in test section of test substance to control section, Transformed cell TM182-CRE1 [2] | Activity (%) of test substance for inhibiting intracellular signaling from plant-derived cytokinin receptor of cell [2] | Relative growth rate (%) in test section of test substance to control section, Transformed cell TM182-p415CYC1 [3] | Root growth-promoting activity (root growth rate) [1, 7] | Root growth-promoting activity (root growth rate) [4, 8] | also measured
CC(CO)CCNc1nc(-c2ccccc2)c2cc(Cl)ccc2n1 (stereo not shown) [Ic3-12] | 5.6% | 94.4% | 90.9% |  |  | Root growth-promoting activity (root growth rate) [1, 5]: 128.9%; Root growth-promoting activity (root growth rate) [4, 6]: 128.9%
CC(CO)Nc1nc(-c2ccccc2)c2cc(Cl)ccc2n1 (stereo not shown) [Ic3-44] | 7.0% | 93.0% | 101.4% |  |  | Root growth-promoting activity (root growth rate) [1, 5]: 126.5%; Root growth-promoting activity (root growth rate) [4, 6]: 126.5%
N#Cc1ccc2nc(NCCCO)nc(-c3ccccc3)c2c1 [Ic9-1] |  |  |  | 141.5% | 141.5% | 
CC(C)=CCNc1nc(-c2ccccc2)c2cc(Cl)ccc2n1 [Ic3-17] |  |  |  | 121.3% | 121.3% | 
OCCCNc1nc(-c2ccccc2)c2c(Cl)cccc2n1 [Ic1-1] |  |  |  |  |  | Root growth-promoting activity (root growth rate) [1, 9]: 150.9%; Root growth-promoting activity (root growth rate) [4, 10]: 150.9%
COCCCNc1nc(-c2ccccc2)c2cc(Cl)ccc2n1 [Ic3-38] | 1.2% | 98.8% | 99.4% |  |  | Root growth-promoting activity (root growth rate) [1, 11]: 141.9%; Root growth-promoting activity (root growth rate) [4, 12]: 141.9%
CC(C)CCNc1nc(-c2ccccc2)c2cc(Cl)ccc2n1 [Ic3-10] |  |  |  | 120.6% | 120.6% | 
Clc1ccc2nc(NCC3CCCO3)nc(-c3ccccc3)c2c1 (stereo not shown) [Ic3-37] | 3.5% | 96.5% | 114.2% |  |  | Root growth-promoting activity (root growth rate) [1, 11]: 138.5%; Root growth-promoting activity (root growth rate) [4, 12]: 138.5%
Clc1cc(Cl)c2nc(NCc3ccco3)nc(-c3ccccc3)c2c1 [Ic12-3] |  |  |  |  |  | Root growth-promoting activity (root growth rate) [1, 9]: 138.8%; Root growth-promoting activity (root growth rate) [4, 10]: 138.8%
OCCCNc1nc(-c2ccccc2)c2cc(C(F)(F)F)ccc2n1 [Ic6-2] |  |  |  |  |  | Root growth-promoting activity (root growth rate) [1, 9]: 155.9%; Root growth-promoting activity (root growth rate) [4, 10]: 155.9%
CC(C)Nc1nc(-c2ccccc2)c2cc(Cl)ccc2n1 [Ic3-28] |  |  |  | 120.4% | 120.4% | 
